Laboratory results taken from ChEMBL document CHEMBL1201862, “PubChem BioAssay data set” (2004).
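Each compound was tested at five concentrations against cells in 96-well plates for 48 hours. GI50 = concentration required for 50% inhibition of growth.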 Active and inactive are the calls of the source. Cut-off read from the data, not from the text of the source: active = GI50 up to about 1.1 µM and inactive = higher.

How the values were obtained:
Assay in all cases: inhibition of tumour cell growth, NCI panel, 48 h
OVCAR-8 = test system: OVCAR-8
ACHN = test system: ACHN
RXF 393 = test system: RXF 393
SK-OV-3 = test system: SK-OV-3
SK-MEL-28 = test system: SK-MEL-28
SF-295 = test system: SF-295
LOX IMVI = test system: LOX IMVI
HCT-15 = test system: HCT-15
NCI-H460 = test system: NCI-H460
SF-268 = test system: SF-268
SK-MEL-2 = test system: SK-MEL-2
RPMI-8226 = test system: RPMI-8226
M14 = test system: M14
OVCAR-5 = test system: OVCAR-5
SR = test system: SR
HOP-62 = test system: HOP-62
EKVX = test system: EKVX
SW-620 = test system: SW-620
MDA-MB-231 = test system: MDA-MB-231

Structure (SMILES)	GI50 (OVCAR-8)	GI50 (ACHN)	GI50 (RXF 393)	GI50 (SK-OV-3)	GI50 (SK-MEL-28)	GI50 (SF-295)	GI50 (LOX IMVI)	GI50 (HCT-15) [µM]	GI50 (NCI-H460)	GI50 (SF-268)	GI50 (SK-MEL-2)	GI50 (RPMI-8226)	GI50 (M14)	GI50 (OVCAR-5)	GI50 (SR)	GI50 (HOP-62)	GI50 (EKVX)	GI50 (SW-620)	GI50 (MDA-MB-231)
COC1=NCc2ccccc2-c2ccccc21	> 100 µM (inactive)	> 100 µM (inactive)	> 100 µM (inactive)	> 100 µM (inactive)	> 100 µM (inactive)	> 100 µM (inactive)	> 100 µM (inactive)	> 100	> 100 µM (inactive)	> 100 µM (inactive)	> 100 µM (inactive)								
COc1ccc2ccccc2c1CN1CCOCCOCCN(Cc2c(OC)ccc3ccccc23)CCOCCOCC1	> 100 µM (inactive)	> 100 µM (inactive)	> 100 µM (inactive)	> 100 µM (inactive)	> 45.2 µM (inactive)	> 100 µM (inactive)	> 68.5 µM (inactive)	> 91	25.4 µM (inactive)	> 80.5 µM (inactive)	46.3 µM (inactive)	10.8 µM (inactive)	17.1 µM (inactive)	> 100 µM (inactive)	0.514 µM (active)	> 100 µM (inactive)	> 100 µM (inactive)	> 62.1 µM (inactive)	
Cc1cc2c(cn1)C(=O)OCC2	> 100 µM (inactive)	> 100 µM (inactive)	> 100 µM (inactive)	> 100 µM (inactive)	> 100 µM (inactive)	> 100 µM (inactive)	> 100 µM (inactive)		> 100 µM (inactive)	> 100 µM (inactive)		> 100 µM (inactive)	> 100 µM (inactive)	> 100 µM (inactive)	> 100 µM (inactive)	> 100 µM (inactive)	> 100 µM (inactive)	> 100 µM (inactive)	
COc1cc(-c2oc3c(OC)c(O)c(OC)c(O)c3c(=O)c2OC)cc(O)c1OC	37.9 µM (inactive)	50.6 µM (inactive)	27.1 µM (inactive)	16.4 µM (inactive)	47.5 µM (inactive)	15.8 µM (inactive)	28.4 µM (inactive)	35.3			55.1 µM (inactive)	23.8 µM (inactive)	38.3 µM (inactive)	56.6 µM (inactive)		40.5 µM (inactive)	39.2 µM (inactive)	44.3 µM (inactive)	46.2 µM (inactive)
CCOP(=S)(OCC)Oc1ccc2c(c1)OC(=O)C1(Cl)C2(C)C2(Cl)C(=O)Oc3cc(OP(=S)(OCC)OCC)ccc3C12C (stereo unspecified)	16.3 µM (inactive)	22.4 µM (inactive)	11.8 µM (inactive)		16.5 µM (inactive)	14.7 µM (inactive)	19 µM (inactive)	20.4	17.5 µM (inactive)	6.08 µM (inactive)	20.4 µM (inactive)	11.1 µM (inactive)	17.7 µM (inactive)	19 µM (inactive)		18.3 µM (inactive)	24.3 µM (inactive)	16.7 µM (inactive)	
COc1ccc(Nc2nc3c([nH]2)c(=O)n(C)c(=O)n3C)cc1	> 10 µM (inactive)		> 10 µM (inactive)	> 10 µM (inactive)	> 10 µM (inactive)	> 10 µM (inactive)	> 10 µM (inactive)	> 10		> 10 µM (inactive)		> 10 µM (inactive)	> 10 µM (inactive)		> 10 µM (inactive)	> 10 µM (inactive)	> 10 µM (inactive)	> 10 µM (inactive)	> 10 µM (inactive)
Oc1ccc2ccccc2c1/N=N/c1ccsc1	> 100 µM (inactive)	> 100 µM (inactive)	53.3 µM (inactive)	> 100 µM (inactive)	> 100 µM (inactive)	> 100 µM (inactive)	> 100 µM (inactive)	76.7	> 100 µM (inactive)	> 100 µM (inactive)	> 100 µM (inactive)	> 100 µM (inactive)	> 100 µM (inactive)	> 100 µM (inactive)	> 100 µM (inactive)	> 100 µM (inactive)		> 100 µM (inactive)	
CC(C)N(C(=O)C12C3C4C5(C(=O)O)C(C1C35I)C42C(=O)O)C(C)C (stereo unspecified)	> 100 µM (inactive)	> 100 µM (inactive)		> 100 µM (inactive)	> 100 µM (inactive)	> 100 µM (inactive)		> 100	> 100 µM (inactive)	> 100 µM (inactive)			> 100 µM (inactive)	> 100 µM (inactive)	> 100 µM (inactive)	> 100 µM (inactive)	> 100 µM (inactive)	> 100 µM (inactive)	
COC(=O)[C@H]1C=C[C@@H](C)n2c(=O)c3cc4ccccc4cc3c(=O)n21	> 100 µM (inactive)	> 100 µM (inactive)	> 100 µM (inactive)	> 100 µM (inactive)	> 100 µM (inactive)	> 100 µM (inactive)	> 100 µM (inactive)	> 100	> 100 µM (inactive)	> 100 µM (inactive)	> 100 µM (inactive)	> 100 µM (inactive)	> 100 µM (inactive)	> 100 µM (inactive)	> 100 µM (inactive)	> 100 µM (inactive)	> 100 µM (inactive)	> 100 µM (inactive)	
